Patent publication US6133323A, “Process for enhancing immune response in animals using β-carotene as a dietary supplement” (priority 1998, dated 2000)
Like-named read-outs stand apart in the source and are kept apart here. Values belong to the molecule of their own block, whether it stands above or below them.

Columns and labels:
[1] = parameters: species or system female Beagle dogs; conditions: dog, in vivo
Description: (§1) Female Beagle dogs (18 to 19 months of age; 7 to 9 kg body weight) were used in Examples 1-3 and were fed a basal diet (The lams Co., Lewisburg, Ohio.) which met or exceeded the requirement for all essential nutrients. Animals were housed indoors in light--(14 hr light; 10 hr dark) and temperature-controlled rooms.
(§2) All procedures were conducted under dim light. Duplicate aliquots of plasma, each leukocyte homogenate, and each leukocyte subcellular fraction were extracted with a 1:1 mixture of diethyl ether and petroleum ether in the presence of BHT. The ether phase was removed and dried under a stream of nitrogen.
In this Example, the dogs (n=6/treatment) were fed daily at 0800 hr for 7 consecutive days with 0, 12.5, 25, 50 or 100 mg β-carotene. The β-carotene was top-dressed on the food and fed in the morning meal. Blood was sampled once daily on day 0 (immediately prior to the first dose) and subsequently at 6 hr after each dosing (days 1 through 7). […] Plasma was isolated and analyzed for concentrations of β-carotene.

blood lymphocytes = tested on: blood lymphocytes; parameters: species or system female Beagle dogs; conditions: dog, in vivo
Description: as §1, §2
(§3) This example was designed to study the uptake of β-carotene in dogs by blood lymphocytes. The dogs (n=8/treatment) were fed 0, 50 or 100 mg of β-carotene daily for 30 days. Blood was sampled from all dogs via the jugular vein on days 10, 20 and 30. Blood lymphocytes and neutrophils were separated by density gradient centrifugation. Cell numbers were enumerated. Lymphocytes and neutrophils were resuspended in PBS containing 3% sodium ascorbate as an antioxidant. An aliquot of the cell suspension was sonicated for 30 seconds to disrupt the cells. The leukocyte homogenates were extracted for HPLC analysis of β-carotene.

blood neutrophils = tested on: blood neutrophils; parameters: species or system female Beagle dogs; conditions: dog, in vivo
Description: as §1, §2, §3

[2] = tested on: subcellular fractions of blood lymphocytes; parameters: species or system female Beagle dogs; conditions: dog, in vivo
Description: as §2, §3
(§4) On day 30, a larger aliquot of blood was taken and leukocyte suspensions prepared as described above for subsequent subcellular fractionation. Cells were disrupted by sonication for 20 seconds in 5 volumes of 0.25 M sucrose. Sodium ascorbate was added as the antioxidant. The homogenate was centrifuged (600×g for 10 min at 4° C.) and the nuclear pellet separated from the supernatant. The postnuclear supernatant was centrifuged (17,300×g for 20 min at 4° C.) to separate the mitochondrial fraction. The postmitochondrial supernatant was centrifuged (102,000×g for 60 min at 4° C.) to separate the microsomal from the cytosolic fraction. Each subcellular fraction was analyzed for β-carotene content by HPLC.

[3] = tested on: subcellular fractions of blood neutrophils; parameters: species or system female Beagle dogs; conditions: dog, in vivo
Description: as §2, §3, §4

[4] = format: in vivo, female Beagles (dogs); conditions: dog, daily supplementation
Description: (§5) Female Beagles (4 to 5 mo old) were supplemented daily with 0, 25, 50 or 100 mg of β-carotene to study the role of dietary β-carotene in enhancing the cell-mediated and humoral immune systems of the dog. The following parameters were assessed in all the animals or in the peripheral blood lymphocytes: (1) delayed-type hypersensitivity (DTH) against PHA (nonspecific immunity) and vaccine (specific immunity), (2) lymphocyte proliferation, (3) lymphocyte populations and (4) immunoglobulins (Ig).

DTH response to PHA = assay: Delayed-type hypersensitivity (DTH) against PHA (nonspecific immunity); format: in vivo, female Beagles (dogs); conditions: dog, 50 mg β-carotene daily, 7 weeks
Description: as §5

DTH response to vaccine = assay: Delayed-type hypersensitivity (DTH) against vaccine (specific immunity); format: in vivo, female Beagles (dogs); conditions: dog, 20 or 50 mg β-carotene daily, 7 weeks
Description: (§6) The following parameters were assessed in all the animals or in the peripheral blood lymphocytes: (1) delayed-type hypersensitivity (DTH) against PHA (nonspecific immunity) and vaccine (specific immunity), (2) lymphocyte proliferation, (3) lymphocyte populations and (4) immunoglobulins (Ig).

CD4+ cells = assay: Lymphocyte populations (CD4+ cells); format: in vivo, female Beagles (dogs); conditions: dog, 20 or 50 mg daily, wk 8
Description: as §6

CD8 cells = assay: Lymphocyte populations (CD8 cells); format: in vivo, female Beagles (dogs); conditions: dog, 20 mg daily, weeks 2 and 4
Description: as §6

[5] = tested on: immunoglobulins (IgG, IgM, total IgG); assay: Plasma immunoglobulins (Ig); format: in vivo, female Beagles (dogs); conditions: dog
Description: as §6

lymphocyte blastogenesis = assay: Mitogen-induced lymphocyte blastogenesis (lymphocyte proliferation); format: in vivo, female Beagles (dogs); conditions: dog, β-carotene feeding
Description: as §5

IL-2 = IL-2 production; format: in vivo, female Beagles (dogs); conditions: dog, β-carotene feeding
in vivo [6] = assay: in vivo; parameters: species or system female short hair Tabby cats; conditions: po
Description: (§7) Mature female short hair Tabby cats (7 to 8 months of age; 1.5 to 2.0 kg body weight) were used for Examples 4-6and were fed a basal diet (The lams Co., Lewisburg, Ohio.) which met or exceeded the requirement for all essential nutrients. Animals were group-housed indoors in light- and temperature-controlled rooms.
To study the uptake of oral β-carotene in cats given a single dose of β-carotene orally, cats (n=6/treatment) were given once perorally 0, 10, 20 or 50 mg of β-carotene (10% cold water dissolvable; BASF Corp., Ludwigshafen, Germany). The appropriate dose of β-carotene was dissolved in 0.6 ml of water and fed orally by using a feeding syringe. […] These cats were fed once with 50 mg β-carotene and blood sampled at 0 (immediately prior to β-carotene feeding), 3, 6, 10, 16, 24, 30 and 36 hr.
The results from this example are illustrated in FIG. 14 and show peak concentrations of β-carotene generally occurring between 10 and 16 hr post-dosing. Subsequently, blood was sampled from the remaining cats at 0, 12, 24, 30, 36, 42, 48 and 72 hr after dosing. Plasma was similarly separated and analyzed.

in vivo [7] = assay: in vivo; parameters: species or system female short hair Tabby cats
Description: as §7
In this Example, the cats (n=6/treatment) were dosed daily at 0800 hr for 6 consecutive days with 0, 1, 2, 5 or 10 mg β-carotene. Blood was sampled once daily on day 0 (immediately prior to the first dose) and subsequently at 12 hr after each dosing (days 1 through 6). This blood sampling time was chosen based on the results obtained in Example 5. Plasma was isolated and analyzed for concentrations of β-carotene.

[8] = tested on: peripheral blood lymphocytes; parameters: species or system female short hair Tabby cats; conditions: in vivo
Description: as §7
(§8) This example studied the uptake of β-carotene by blood lymphocytes in cats. The cats (n=8/treatment) were fed 0, 5 or 10 mg of β-carotene daily for 14 days. Blood was sampled on days 7 and 14 with the aid of a blood collection vacutainer set (Becton Dickenson, Franklin Lakes, N.J.) in sedated animals (10 mg ketamine and 0.1 mg of acepromazine/kg body weight). Blood lymphocytes and neutrophils were separated by density gradient centrifugation. Cell numbers were enumerated. Lymphocytes were resuspended in PBS containing 3% sodium ascorbate as an antioxidant. An aliquot of the cell suspension was sonicated for 30 seconds to disrupt the cells. The lymphocyte homogenate was extracted for the HPLC analysis of β-carotene. Adequate numbers of neutrophils could not be obtained; therefore, no data are available in quantitating the uptake of β-carotene by circulating neutrophils.

[9] = tested on: subcellular lymphocyte fractions; parameters: species or system female short hair Tabby cats; conditions: in vivo
Description: as §7, §8
A larger aliquot was used to prepare subcellular lymphocyte fractions. Lymphocytes were disrupted by sonication for 20 seconds in 5 volumes of 0.25 M sucrose. Sodium ascorbate was added as the antioxidant. The homogenate was centrifuged (600×g for 10 min at 4° C.) and the crude nuclear pellet separated from the supernatant. The postnuclear supernatant obtained earlier was centrifuged (7,300×g for 20 min at 4° C.) to separate the mitochondrial fraction. The postmitochondrial supernatant was centrifuged (102,000×g for 60 min at 4° C.) to separate the microsomal from the cytosolic fraction. Each subcellular fraction was analyzed for β-carotene content by HPLC.

[10] = dog, in vivo
[11] = pigs and rodents; cited from earlier work
in vivo [12] = conditions: dog, po
[13] = cited from earlier work
[14] = Blood uptake of β-carotene in dogs after a single oral dose (plasma, HPLC); conditions: dog

increase in daily concentrations of plasma β-carotene, 100 mg vs other doses [1]: steepest increase
plasma β-carotene after the last dose relative to after the first dose [1]: 2.5-4 fold
treatment difference in β-carotene concentrations in lymphocytes, 50 versus 100 mg (blood lymphocytes): no significant treatment difference
β-carotene in lymphocytes of dogs lower than that observed in cats (blood lymphocytes): 20-30 fold
β-carotene in peripheral blood lymphocytes on day 0 (blood lymphocytes): undetectable
neutrophil β-carotene concentrations on day 30 (blood neutrophils): no further increase
share of total lymphocyte β-carotene in the cytosol [2]: 52-62%
share of total lymphocyte β-carotene in the microsomes [2]: 16-23%
share of total lymphocyte β-carotene in the mitochondria [2]: 14-17%
share of total lymphocyte β-carotene in the nuclei [2]: 6-8%
β-carotene in lymphocyte subcellular fractions of dogs compared with cats [2]: substantially lower
dose effect on β-carotene uptake by neutrophil subcellular fractions [3]: No significant dose effect
β-carotene in nuclei of blood neutrophils [3]: not detected
half-life of plasma β-carotene (in vivo [6]; cat): about 24 hr
half-life (in vivo [6]; cat, half-life of plasma β-carotene): 12 to 18 h
Tmax (in vivo [6]; cat, time of peak concentrations of plasma β-carotene): 12 h
Tmax (in vivo [6]; cat, time of peak concentrations of β-carotene (post-dosing)): 10 to 16 h
plasma β-carotene concentration, 50 mg vs other doses (in vivo [6]): highest (P<0.01)
increase in daily changes in plasma β-carotene, 10 mg vs other doses (in vivo [7]): steepest increase
plasma β-carotene after the last dose relative to after one dose (in vivo [7]): 1.5-2 fold
concentration at 12 h (in vivo [7]; cat, po): 192 ± 58 ng/mL
accumulation of β-carotene in lymphocytes, 10 mg vs 5 mg [8]: did not have higher accumulation
day of maximal uptake of dietary β-carotene by lymphocytes [8]: ≤ 7 days
uptake of β-carotene by blood lymphocytes on day 14 [8]: no additional increases
β-carotene in peripheral blood lymphocytes on day 0 [8]: undetectable
accumulation of β-carotene in all fractions, day 14 vs day 7 [9]: no additional accumulation
concentrations of β-carotene in lymphocyte fractions, 10 mg vs 5 mg [9]: did not have higher concentrations
influence of dose or length of supplementation on relative β-carotene profiles in lymphocyte fractions [9]: generally were not influenced
relative proportion of β-carotene in the microsomes of lymphocytes [9]: 20-35%
β-carotene uptake in the nuclei compared to unsupplemented controls [9]: significant
plasma β-carotene of dogs lower than that observed in cats [10]: 10-16 fold
time of peak blood β-carotene, dogs compared with cats [10]: occurred earlier in dogs than in cats
half-life of plasma β-carotene ([10]; po): ~4 h
Tmax (in vivo [12]): 3 to 6 h
half-life (in vivo [12]; half-life of plasma β-carotene): ~3 h
Tmax [14]: 6 h
Molecule: CC1=C(/C=C/C(C)=C/C=C/C(C)=C/C=C/C=C(C)/C=C/C=C(C)/C=C/C2=C(C)CCCC2(C)C)C(C)(C)CCC1 [β-carotene]
effect on plasma retinol [4]: did not influence
effect on plasma α-tocopherol [4]: did not influence
DTH response to PHA (DTH response to PHA): greatest response
DTH response to vaccine (DTH response to vaccine): significantly higher DTH response
population of CD4+ cells compared to controls (CD4+ cells): elevated population
population of CD8 cells (CD8 cells): elevated population
dose dependence of Ig increases ([5]; 0 to 20 mg): dose dependent
antibody response for both Ig at 20 mg ([5]; 20 mg daily): greatest antibody response
Ig response at the highest level (50 mg) ([5]; 50 mg daily): did not produce a further increase
concentrations of IgG, IgM and total IgG ([5]; as early as 1 wk after dietary supplementation): increased significantly
mitogen-induced lymphocyte blastogenesis (lymphocyte blastogenesis): did not influence
IL-2 production (IL-2): did not influence
concentrations of β-carotene [11]: very low concentrations
β-carotene in the liver and milk of dogs ([13]; earlier studies): only trace amounts
β-carotene in the circulating blood and organs of dogs ([13]; some studies): low to undetectable amounts

Molecule: carotene
carotene in the blood, liver and milk of dogs ([13]; dog, in vivo): trace amounts, if any
